# According to paper PMC11649115, “In vitro safety evaluation of dopamine D3R antagonist, R-VK4-116, as a potential medication for the treatment of opioid use disorder” (PLOS ONE, 2024):
# Read-outs that look alike come from different tables or passages of the source.
# How the values were obtained:
# OCT2 = target: T1, OCT2 (Homo sapiens, UniProt O15244); test: Transporter mediated assay (substrate/inhibitor), MDCK-II cells; assay type: in vitro ADME
# T1 construct: expressed in transfected cells; host or cells: MDCK-II cells
# T1 sequence (O15244 1-555): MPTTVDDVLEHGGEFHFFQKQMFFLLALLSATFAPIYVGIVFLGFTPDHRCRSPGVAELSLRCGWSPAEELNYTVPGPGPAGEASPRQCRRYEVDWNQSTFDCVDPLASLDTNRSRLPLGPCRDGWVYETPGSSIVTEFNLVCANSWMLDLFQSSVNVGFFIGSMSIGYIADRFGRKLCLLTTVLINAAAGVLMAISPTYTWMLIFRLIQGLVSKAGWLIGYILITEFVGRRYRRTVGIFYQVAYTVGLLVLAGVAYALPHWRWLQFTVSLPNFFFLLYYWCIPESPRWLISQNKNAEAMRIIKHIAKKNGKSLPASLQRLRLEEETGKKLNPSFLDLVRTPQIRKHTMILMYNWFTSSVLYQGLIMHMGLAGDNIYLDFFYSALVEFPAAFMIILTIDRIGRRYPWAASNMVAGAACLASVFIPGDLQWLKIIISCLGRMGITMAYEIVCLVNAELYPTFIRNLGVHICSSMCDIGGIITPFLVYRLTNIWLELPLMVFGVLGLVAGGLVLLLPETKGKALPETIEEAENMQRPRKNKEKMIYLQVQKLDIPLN
# Description: The MDCK-II cells were treated to express the transporter of interest. The transport of each probe substrate was determined by radiometric detection (Fig 1 in S1 File). […] For the uptake assay, the net transporter-mediated uptake-rate (V) of the substrate by each SLC transporter was calculated as follows: Transporter–mediatedupdaterate(pmol/min/cm^2)=(Cellularaccumulationincellsexpressingthetransporter)−(Meancellularaccumulationincontrolcells)/Surfacearea×incubationtime
# Fold of activity and percent inhibition were determined as follows: Foldofactivity=(Meanuptakerate)transporterexpressingcells/(Meanuptakerate)controlcells Percentinhibition=100−100×(Transport‐mediatedupdaterate)withinhibitor/(Transport‐mediatedupdaterate)vehiclecontrol
# HepG2 cells = test: Mitochondrial toxicity (MT) assay panel; assay type: cell-based
# Description: The assay results were presented as % cell viability. […] After each incubation, the cells were harvested and lysed to test the MT assay panel. The Zalcitabine (positive control) was also included in this assay (Fig 3 in S1 File). The levels of Mitochondrial Oxidative Phosphorylation (OXPHOS) complex 1 (NADH dehydrogenase; ab178011, lot #GR 3339973–1), complex 3 (CytC reductase; ab124537, lot #GR3276896-3), complex 4 (CytC Oxidase; ab179880, lot #GR3273194-1), and complex 5 (ATP synthase; ab124539, lot #GR3267780-4) in the cell lysates were determined using respective indirect ELISA as per manufacturer’s instructions. The total ATP content of the cell lysates was determined using an ATP assay kit (ab83355, lot #GR3314128-2, Abcam, Cambridge, MA). The Caspase 3 content of the cell lysates was determined using the Caspase-3 assay kit (ab39401, lot #GR3322733-1, Abcam, Cambridge, MA). In addition, the total glutathione content was determined using the total glutathione (GSSG/GSH) assay kit (STA-312, lot #09100263, Oxiselect™, San Diego, CA). Using an Oxiselect™ ROS/RNS assay kit (STA-347, lot #7081343, Cell Biolabs Inc. San Diego, CA), the ROS/RNS content of the cell lysates was determined by fluorescence assay.
# MARK3 = target: T2, MARK3 (Homo sapiens, UniProt P27448); test: KINOMEscan binding (% Ctrl, Kd)
# T2 construct: made in house; host or cells: E. coli BL21-derived host (T7 phage) or HEK-293
# Description: Briefly, E. coli host derived from the BL21 strain were grown to log-phase and infected with kinase-tagged T7 phage and incubated with shaking at 32°C until lysis. The lysates were centrifuged and filtered to remove cell debris. The remaining kinases were produced in HEK-293 cells and subsequently tagged with DNA for qPCR detection. Streptavidin-coated magnetic beads were treated with biotinylated small molecule ligands to generate affinity resins for kinase assays. The liganded beads were blocked with excess biotin and washed to remove unbound ligand and to reduce non-specific phage binding. […] Selectivity Score (S-score) was a quantitative measure of compound selectivity. […] The binding constants (Kds) were also determined with a standard dose-response curve using the Hill equation and Levenberg-Marquardt algorithm [24, 25].
# CYP2C9 = CYP2C9 (Homo sapiens, UniProt P11712); test: CYP inhibition in human liver microsomes; conditions: human liver microsomes
# CYP2C19 = CYP2C19 (Homo sapiens, UniProt P33261); test: CYP inhibition in human liver microsomes; conditions: human liver microsomes
# hERG = hERG (Homo sapiens, UniProt Q12809); test: CiPA IonChannelProfiler Cardiac Panel, QPatch
# CYP2D6 = CYP2D6 (Homo sapiens, UniProt P10635); test: CYP phenotyping, recombinant CYP; assay type: in vitro ADME; parameters: purchased XenoTech, LLC, Kansas City, KS; host or cells: bactosomes (bacterial membranes); conditions: recombinant CYP2D6, pH 7.4, incubated with CYP2D6, 1 μM, 120 min
# Description: (§1) CYP phenotyping involved the identification of CYP isoforms, which involved in the metabolism of R-VK4-116 using recombinant CYP1A2, CYP2B6, CYP2C8, CYP2C9, CYP2C19, CYP2D6, and CYP3A4 (XenoTech, LLC, Kansas City, KS), followed by determination of the Km and Vmax for the metabolites formed by the major CYP isoforms. […] In addition, R-VK4-116 was also incubated with all components in the absence of NADPH. […] Following brief vortexing and centrifugation, 50 μl of supernatant was mixed with 450 μl of 25:75:0.2 acetonitrile/water/formic acid for analysis by LC-MS/MS to determine the remaining R-VK4-116 at each time point based on peak area ratio (PAR) of R-VK4-116 to IS. As a positive control, the known substrate of each individual CYP isoform (phenacetin for CYP1A2, bupropion for CYP2B6, paclitaxel for CYP2C8, diclofenac for CYP2C9, diazepam for CYP2C19, bufuralol for CYP2D6, and testosterone for CYP3A4) was also incubated.
# CYP3A4 = CYP3A4 (Homo sapiens, UniProt P08684); test: CYP phenotyping, recombinant CYP; assay type: in vitro ADME; parameters: purchased XenoTech, LLC, Kansas City, KS; host or cells: bactosomes (bacterial membranes); conditions: recombinant CYP3A4, pH 7.4, incubated with CYP3A4, 1 μM, 120 min
# Description: as §1
# [1] = HepG2, 0.1, 1 and 10 μM, 7- and 14-day
# Chain of hERG (Q12809 whole entry): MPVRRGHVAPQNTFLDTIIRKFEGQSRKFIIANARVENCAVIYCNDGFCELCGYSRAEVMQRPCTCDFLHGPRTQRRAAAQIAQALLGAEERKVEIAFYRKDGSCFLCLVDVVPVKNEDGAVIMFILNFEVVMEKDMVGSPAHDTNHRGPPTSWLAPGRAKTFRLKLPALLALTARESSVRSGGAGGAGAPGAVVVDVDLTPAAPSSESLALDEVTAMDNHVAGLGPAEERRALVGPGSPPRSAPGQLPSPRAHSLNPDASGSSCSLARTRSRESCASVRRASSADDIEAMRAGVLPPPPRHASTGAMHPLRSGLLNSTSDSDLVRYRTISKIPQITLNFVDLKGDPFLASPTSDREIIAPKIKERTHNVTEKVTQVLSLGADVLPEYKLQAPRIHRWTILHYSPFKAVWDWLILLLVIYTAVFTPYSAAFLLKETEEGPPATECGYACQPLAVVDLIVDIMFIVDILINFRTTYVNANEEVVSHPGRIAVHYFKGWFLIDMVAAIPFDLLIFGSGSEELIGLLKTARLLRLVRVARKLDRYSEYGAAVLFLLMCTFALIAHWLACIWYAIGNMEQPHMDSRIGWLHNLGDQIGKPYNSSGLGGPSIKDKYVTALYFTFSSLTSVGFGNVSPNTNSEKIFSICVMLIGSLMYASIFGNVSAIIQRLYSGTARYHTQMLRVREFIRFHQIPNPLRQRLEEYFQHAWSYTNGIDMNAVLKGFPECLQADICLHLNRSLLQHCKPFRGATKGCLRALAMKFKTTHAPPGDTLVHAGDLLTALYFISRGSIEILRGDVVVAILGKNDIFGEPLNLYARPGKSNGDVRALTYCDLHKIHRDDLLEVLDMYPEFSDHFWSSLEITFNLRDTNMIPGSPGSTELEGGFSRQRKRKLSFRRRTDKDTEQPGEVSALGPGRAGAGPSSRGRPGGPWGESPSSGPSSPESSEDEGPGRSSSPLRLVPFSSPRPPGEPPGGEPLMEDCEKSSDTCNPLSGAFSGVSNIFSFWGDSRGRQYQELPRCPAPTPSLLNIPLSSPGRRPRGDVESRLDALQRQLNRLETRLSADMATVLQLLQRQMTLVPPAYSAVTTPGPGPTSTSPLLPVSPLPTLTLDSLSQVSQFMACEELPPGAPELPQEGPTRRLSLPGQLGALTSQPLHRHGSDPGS
# Chain of CYP2C9 (P11712 whole entry): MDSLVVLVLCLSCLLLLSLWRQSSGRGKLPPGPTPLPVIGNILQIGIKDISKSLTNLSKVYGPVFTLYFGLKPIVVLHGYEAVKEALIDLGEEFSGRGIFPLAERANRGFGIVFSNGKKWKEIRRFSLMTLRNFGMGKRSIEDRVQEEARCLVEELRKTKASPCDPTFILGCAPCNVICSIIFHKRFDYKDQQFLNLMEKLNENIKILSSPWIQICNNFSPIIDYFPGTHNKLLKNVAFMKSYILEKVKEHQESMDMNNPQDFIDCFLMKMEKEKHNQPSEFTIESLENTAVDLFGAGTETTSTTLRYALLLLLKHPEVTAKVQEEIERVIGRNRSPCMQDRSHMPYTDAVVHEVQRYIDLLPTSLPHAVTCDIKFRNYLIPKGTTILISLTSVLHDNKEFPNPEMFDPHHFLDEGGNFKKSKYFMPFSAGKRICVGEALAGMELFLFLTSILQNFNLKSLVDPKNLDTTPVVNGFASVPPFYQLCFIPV
# T2 sequence (P27448 whole entry): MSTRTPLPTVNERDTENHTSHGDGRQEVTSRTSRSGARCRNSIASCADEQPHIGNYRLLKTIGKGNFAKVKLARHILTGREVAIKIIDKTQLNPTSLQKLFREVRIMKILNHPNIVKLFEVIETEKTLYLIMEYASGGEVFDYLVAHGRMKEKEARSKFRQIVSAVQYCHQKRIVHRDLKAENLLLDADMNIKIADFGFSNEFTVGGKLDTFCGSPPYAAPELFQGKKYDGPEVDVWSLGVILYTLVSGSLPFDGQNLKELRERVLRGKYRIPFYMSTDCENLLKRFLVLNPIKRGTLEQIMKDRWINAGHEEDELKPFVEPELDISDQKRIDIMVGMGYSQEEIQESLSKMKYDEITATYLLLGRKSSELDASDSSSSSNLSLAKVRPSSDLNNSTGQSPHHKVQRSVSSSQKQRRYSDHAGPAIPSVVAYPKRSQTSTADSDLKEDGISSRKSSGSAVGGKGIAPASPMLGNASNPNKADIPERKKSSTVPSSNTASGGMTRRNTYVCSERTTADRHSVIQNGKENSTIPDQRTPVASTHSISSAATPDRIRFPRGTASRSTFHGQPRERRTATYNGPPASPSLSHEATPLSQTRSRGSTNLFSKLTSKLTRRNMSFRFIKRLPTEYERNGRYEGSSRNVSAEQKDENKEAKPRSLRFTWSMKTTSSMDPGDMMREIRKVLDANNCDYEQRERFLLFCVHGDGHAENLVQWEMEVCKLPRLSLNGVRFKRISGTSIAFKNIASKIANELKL
# Chain of CYP2C19 (P33261 whole entry): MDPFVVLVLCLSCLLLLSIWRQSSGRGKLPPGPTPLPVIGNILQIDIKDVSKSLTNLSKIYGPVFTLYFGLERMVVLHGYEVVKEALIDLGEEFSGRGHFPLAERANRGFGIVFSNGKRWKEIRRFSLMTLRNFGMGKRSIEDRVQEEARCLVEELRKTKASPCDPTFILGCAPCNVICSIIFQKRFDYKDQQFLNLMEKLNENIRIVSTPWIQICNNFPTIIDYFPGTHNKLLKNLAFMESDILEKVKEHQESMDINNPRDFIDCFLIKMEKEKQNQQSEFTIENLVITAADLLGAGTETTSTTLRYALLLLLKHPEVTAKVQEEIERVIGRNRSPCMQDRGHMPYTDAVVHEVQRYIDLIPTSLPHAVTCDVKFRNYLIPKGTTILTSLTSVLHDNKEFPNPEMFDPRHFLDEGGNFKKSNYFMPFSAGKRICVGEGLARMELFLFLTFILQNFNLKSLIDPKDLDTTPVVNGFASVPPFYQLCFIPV
# Chain of CYP3A4 (P08684 whole entry): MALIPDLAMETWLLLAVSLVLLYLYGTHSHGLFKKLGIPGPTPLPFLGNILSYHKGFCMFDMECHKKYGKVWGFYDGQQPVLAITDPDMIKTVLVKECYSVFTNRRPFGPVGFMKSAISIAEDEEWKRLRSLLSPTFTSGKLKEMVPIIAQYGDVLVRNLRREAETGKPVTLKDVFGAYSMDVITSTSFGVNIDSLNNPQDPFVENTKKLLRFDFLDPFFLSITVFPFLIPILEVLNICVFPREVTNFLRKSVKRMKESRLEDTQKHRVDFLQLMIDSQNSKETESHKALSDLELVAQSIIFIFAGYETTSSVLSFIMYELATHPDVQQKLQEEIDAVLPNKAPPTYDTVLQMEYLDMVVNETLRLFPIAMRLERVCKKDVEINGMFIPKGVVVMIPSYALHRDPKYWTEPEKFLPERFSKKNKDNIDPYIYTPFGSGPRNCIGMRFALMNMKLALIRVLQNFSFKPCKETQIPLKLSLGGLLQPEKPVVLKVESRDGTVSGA
# Chain of CYP2D6 (P10635 whole entry, canonical isoform): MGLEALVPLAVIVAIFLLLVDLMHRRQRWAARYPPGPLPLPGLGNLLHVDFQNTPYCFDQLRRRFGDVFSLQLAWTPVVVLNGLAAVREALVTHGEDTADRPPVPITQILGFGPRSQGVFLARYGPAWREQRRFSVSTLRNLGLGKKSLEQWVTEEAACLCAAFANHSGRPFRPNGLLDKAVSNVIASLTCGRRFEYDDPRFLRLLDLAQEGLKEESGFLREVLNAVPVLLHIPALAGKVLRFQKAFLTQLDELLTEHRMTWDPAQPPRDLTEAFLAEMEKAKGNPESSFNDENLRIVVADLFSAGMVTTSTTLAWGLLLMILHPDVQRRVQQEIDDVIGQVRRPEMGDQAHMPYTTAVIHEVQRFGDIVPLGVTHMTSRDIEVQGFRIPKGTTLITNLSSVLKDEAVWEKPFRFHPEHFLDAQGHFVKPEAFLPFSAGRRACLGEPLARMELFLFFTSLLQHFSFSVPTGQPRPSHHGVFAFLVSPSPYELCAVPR
compound,measurement,setting,value
"CCc1cc(Cl)c(OC)c(N2CCN(CC(O)CCNC(=O)c3cc4ccccc4[nH]3)CC2)c1 (centres unmarked) [R-VK4-116, N-(4-(4-(3-chloro-5-ethyl-2-methoxyphenyl)piperazin-1-yl)-3-hydroxybutyl)-1H-indole-2-carboxamide]",fold difference in mean uptake rate (substrate test),"OCT2; OCT2, 1 μM, transporter cells vs control cells",< 2 fold
same,Inhibition (%),"OCT2; OCT2, 0.1% BSA, 10 μM",no statistically significant inhibition
same,inhibition at 10 µM,"OCT2; human, polarized monolayer of MDCK-II cells expressing OCT2, OCT2, 0.1% BSA, 10 μM",-17.4 ± 1.88%
same,"OXPHOS complex 1, 3, 4, and 5 or total ATP levels",HepG2 cells; [1],No significant decrease
same,"caspase 3, or total glutathione levels",HepG2 cells; [1],no significant increase
same,increase in ROS/RNS levels compared with the solvent control,"HepG2 cells; HepG2, 7-days, all three concentrations (0.1, 1, 10 μM)",10–35%
same,Kd,"MARK3; 11-point curve 0.001 to 10 μM, read-out: binding constant (Kd)",> 10 µM
same,remaining binding at 1 µM,MARK3; read-out: %Control,< 35%
same,remaining binding at 1 µM,MARK3; read-out: Gene (S-score with % control): MARK3,0%
same,CYP2C9 inhibition,CYP2C9; up to 100 μM,did not inhibit CYP significantly
same,"activity at 20 min, 0.1 µM","CYP2C9; human, probe diclofenac",89.5 ± 9.2%
same,"activity at 20 min, 0.3 µM","CYP2C9; human, probe diclofenac",79 ± 2.7%
same,"activity at 20 min, 1 µM","CYP2C9; human, probe diclofenac",80.9 ± 2.2%
same,"activity at 20 min, 3 µM","CYP2C9; human, probe diclofenac",92.3 ± 10.1%
same,"activity at 20 min, 10 µM","CYP2C9; human, probe diclofenac",91.5 ± 7.3%
same,"activity at 20 min, 30 µM","CYP2C9; human, probe diclofenac",80.9 ± 0.9%
same,"activity at 20 min, 60 µM","CYP2C9; human, probe diclofenac",81.8 ± 3.1%
same,"activity at 20 min, 100 µM","CYP2C9; human, probe diclofenac",93.4 ± 8.1%
same,CYP2C19 inhibition,CYP2C19; up to 100 μM,did not inhibit CYP significantly
same,"activity at 20 min, 0.1 µM","CYP2C19; human, probe mephenytoin",102 ± 4.6%
same,"activity at 20 min, 0.3 µM","CYP2C19; human, probe mephenytoin",96.2 ± 5%
same,"activity at 20 min, 1 µM","CYP2C19; human, probe mephenytoin",97.3 ± 2.2%
same,"activity at 20 min, 3 µM","CYP2C19; human, probe mephenytoin",95.9 ± 3.6%
same,"activity at 20 min, 10 µM","CYP2C19; human, probe mephenytoin",99.6 ± 3.3%
same,"activity at 20 min, 30 µM","CYP2C19; human, probe mephenytoin",96.7 ± 3.5%
same,"activity at 20 min, 60 µM","CYP2C19; human, probe mephenytoin",95 ± 5.4%
same,"activity at 20 min, 100 µM","CYP2C19; human, probe mephenytoin",99.7 ± 3.4%
same,inhibition at 10 µM,hERG; 10 μM,54.6%
same,inhibition at 100 µM,hERG; 100 μM,82.3%
same,inhibition at 10 µM,hERG; ≥10 μM,54 to 82%
same,"remaining at 2 h, 1 μM",CYP2D6,40.6%
same,"remaining at 2 h, 1 μM",CYP3A4,25.6%
